According to US20260109674A1, “ALLOSTERIC MODULATION OF MUSCARINIC ACETYLCHOLINE RECEPTOR EFFICACY” (The University of Toledo, priority 2022, published 2026):
Like-named read-outs stand apart in the source and are kept apart here.

Legend:
[1] = tested on: wild-type zebrafish larvae; assay: General locomotor assay in zebrafish larvae (locomotor activity, repetitive behaviors); assay type: in vivo, Danio rerio; conditions: for Angular Velocity / Total Distance Moved / Variance of Turn Angle: Table 3, tested at 1 μM due to toxicity at 10 μM (footnote a); for response vs control in vivo at 10 µM: Danio rerio, Table 5, 10 μM concentration, N = 12
Protocol: Five days post fertilization (dpf) zebrafish larvae were exposed to a range of nonlethal concentrations of the compounds in a 24-well plate with appropriate controls. The movement of each larval zebrafish was monitored with the Noldus behavior recording system (Noldus Information Technology, Leesburg VA) and quantified using EthoVision® XT 15 software (Noldus Information Technology, Leesburg VA). The plate was immediately placed in the incubator for a 30-minute exposure period. After 30 minutes, the plate was transferred to the Noldus system and swimming behavior was recorded in 100% light for 30 minutes to measure spontaneous swimming behavior. The light was switched off for 10 minutes (dark period) and then switched on for 10 minutes (light period), which was then repeated for two additional cycles. In total, the larvae were exposed to three cycles of alternating 10-minute dark and light periods (100% darkness-to-100% light). […]
All data for exposure and the behavioral end points were analyzed by one-way ANOVA (factor: drug conc) followed by a Dunnett's multiple comparisons test for post hoc significance between drug concentration and control group. Statistically significant differences are noted as follows: *, p<0.05; **, p<0.01; ***, p<0.001.

[2] = target: T1, M1 muscarinic receptors expressed in CHO cells (Homo sapiens, UniProt P11229); assay: [3H]-arachidonic acid release screen with and without ACh and modulator; assay type: cell-based; conditions: for Modulation of ACh activity (in words): [3H]AA release
T1 construct: expressed in transfected cells; host or cells: CHO (CHO-hM1, stably transfected)
T1 sequence (P11229 1-460): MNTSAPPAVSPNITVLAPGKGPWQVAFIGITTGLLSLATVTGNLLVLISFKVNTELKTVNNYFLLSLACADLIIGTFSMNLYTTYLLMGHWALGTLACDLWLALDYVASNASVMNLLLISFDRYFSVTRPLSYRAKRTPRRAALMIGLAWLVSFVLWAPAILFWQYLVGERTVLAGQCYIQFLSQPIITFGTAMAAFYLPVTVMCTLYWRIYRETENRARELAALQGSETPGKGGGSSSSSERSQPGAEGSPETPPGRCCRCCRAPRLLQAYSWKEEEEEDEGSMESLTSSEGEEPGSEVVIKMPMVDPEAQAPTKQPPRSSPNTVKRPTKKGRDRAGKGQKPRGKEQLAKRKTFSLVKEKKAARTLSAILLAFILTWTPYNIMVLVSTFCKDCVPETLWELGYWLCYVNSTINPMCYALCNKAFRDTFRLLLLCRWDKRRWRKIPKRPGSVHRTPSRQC
Protocol: CHO cells expressing human M1 muscarinic receptors were cultured at 37° C. in a 5% CO2 atmosphere in F12 medium supplemented with 5% fetal bovine serum, 100 units/mL penicillin, and 100 μg/mL streptomycin.
Measurement of [^3H]AA release was performed. Stably transfected CHO-hM1 or CHO-hM3 cells were seeded on 24-well plates (Greiner Bio-One GmbH, Frickenhausen, Germany) at a density of 5.0×10^4 cells/well in 0.5 ml of F-12 medium. Cells were incubated until they attached (approximately 3 h), followed by the addition of [^3H]AA to a final concentration of 0.05 μCi of [^3H]AA per well. The cells were then grown for 16 to 20 h before the assay was performed. [^3H]AA release was measured in Eagle's basal medium with 20 mM HEPES and 2 mg/ml fatty acid-free bovine serum albumin (EM-BSA). Cells were rinsed twice with EM-BSA, followed by the addition of EM-BSA media containing experimental agents and incubated for 1 h at 37° C. The assay was terminated by aspiration of the media, and the amount of [^3H]AA released was determined by liquid scintillation counting (Beckman-Coulter LS6500).
For some assays, pretreatment with phenoxybenzamine (POB) was employed, as indicated, to reduce the number of available receptors per cell. Stock POB was made up at 10 mM in ethanol and stored at −20° C. Each well was pretreated with 0.5 ml of the appropriate concentration in PBS with 1 mM CaCl2 and 1 mM MgCl2 (PBS++) for 30 min at 37° C., followed by 5 washes with PBS++. After pretreatment, the normal protocol was followed as above.
Tabulated [^3H]AA release data are represented as a fraction of maximal release in the presence of 100 μM ACh or as the fraction of release elicited by the appropriate concentration of ACh alone, as indicated dose-response curves were normalized to the maximal response of ACh without allosteric ligand. Some response curves were analyzed using the empirical four-parameter equation: […]
Disintegration per minute (DPM) values for a single compound were obtained in triplicate, and each compound was evaluated on three separate 24-well plates. The mean values for each condition from each of the three 24-well plates were used for the statistical analysis. The baseline mean was subtracted from each value, then normalized to the mean response produced by 100 μM ACh (set at 1.0). Statistical analyses were completed on the normalized values via one-way repeated measures ANOVA with Tukey's post hoc test. Statistically significant differences are noted as follows: *, p<0.05; **, p<0.01; ***, p<0.001.

[3] = tested on: wild-type zebrafish larvae; assay: Maximum tolerated concentration (MTC) determination in zebrafish larvae; assay type: in vivo, Danio rerio
Protocol: Determination of maximum tolerated concentration was completed by placing 5 days post fertilization (dpf) wild-type zebrafish larvae in a 24 well plate at 6 fish per well, and one compound concentration per well. […] Death was determined by the absence of heartbeat. Additional endpoints were used to assess toxicity at non-lethal concentrations such as startle capacity (poke stimulus), abnormalities in swimming behavior (loss of dorsoventral balance), and gross morphological deformities (bent body). […] The MTC determination was used to select three doses of each compound (low, medium, high dose) to be used in behavioral assays.

[4] = 10 μM modulator, 0.1 μM ACh, Table 1
[5] = 10 μM modulator, 100 μM ACh, Table 1
[6] = after 24-hour exposure, Table 3

| SMILES | Ratio of response of ACh with modulator to response of ACh alone, 0.1 μM ACh [2, 4] | Ratio of response of ACh with modulator to response of ACh alone, 100 μM ACh [2, 5] | Stimulation of [3H]AA release, No ACh (fraction of stimulation above the control) ([2]; 10 μM modulator, Table 1) | Modulation of ACh activity (in words) ([2]; modulator 10 μM) | Maximum Tolerated Concentration [3, 6] [µM] | other results |
| --- | --- | --- | --- | --- | --- | --- |
| CCCCc1oc2ccccc2c1C(=O)c1cc(I)c(O)c(I)c1 [Compound 3, reference compound] | 0.42 ± 0.00 | 0.81 ± 0.07 | 0.02 ± 0.00 | completely inactive | 3 | Angular Velocity [1]: 101.8 ± 19.2 % of control; Total Distance Moved [1]: 145.4 ± 21.7 % of control; Variance of Turn Angle [1]: 93.4 ± 9.4 % of control |
| CCCCc1oc2ccccc2c1C(=O)c1cc(I)c(OC)c(I)c1 [Compound 6b, (2-butylbenzofuran-3-yl)(3,5-diiodo-4-methoxyphenyl)methanone] | 1.6 ± 0.07 | 1.32 ± 0.08 | 0.06 ± 0.01 | increased ACh activity | 30 | – |
| CCCCc1oc2ccccc2c1C(=O)c1cc(I)c(OCC[N+](CC)(CC)CC)c(I)c1 [Compound 2, N-ethylamiodarone, reference compound] | – | – | 0.04 ± 0.02 | NAM of mAChR efficacy | 1 | Angular Velocity [1]: 128.9 ± 18.5 % of control; Total Distance Moved [1]: 95.8 ± 11.0 % of control; Variance of Turn Angle [1]: 97.6 ± 10.3 % of control; Ratio of response of ACh with modulator to response of ACh alone, 0.1 μM ACh [2]: 0.17 ± 0.04; Ratio of response of ACh with modulator to response of ACh alone, 100 μM ACh [2]: 0.50 ± 0.03 |
| CCCCc1oc2ccccc2c1C(=O)c1ccc(OCCN(CC)CC)cc1 [Compound 6c, (2-butylbenzofuran-3-yl)(4-(2-(diethylamino)ethoxy)phenyl)methanone] | 0.46 ± 0.17 | 1.05 ± 0.05 | 0.05 ± 0.04 | decreased ACh activity | 3 | – |
| COc1cc(CN2C(=O)C(=O)c3ccccc32)cc(OC)c1OC [Compound 8k, 1-(3,4,5-trimethoxybenzyl)indoline-2,3-dione] | 1.37 ± 0.08 | 0.83 ± 0.01 | 0.03 ± 0.00 | – | 30 | – |
| COc1ccc(CN2C(=O)C(=O)c3ccccc32)cc1F [Compound 8h, 1-(3-fluoro-4-methoxybenzyl)indoline-2,3-dione] | 1.17 ± 0.02 | 1.03 ± 0.01 | 0.04 ± 0.01 | – | 30 | – |
| CCCCc1oc2ccc(NS(C)(=O)=O)cc2c1C(=O)c1ccc(OCCCN(CCCC)CCCC)cc1 [Dronedarone, reference compound] | 0.25 ± 0.05 | 0.75 ± 0.07 | 0.08 ± 0.01 | – | 10 | – |
| COc1c(I)cc(CN2C(=O)C(=O)c3cc(OC(F)(F)F)ccc32)cc1I [GK-1-44] | – | – | – | – | – | response vs control in vivo at 10 µM ([1]; read-out: Angular Velocity): 114 ± 19.2%; response vs control in vivo at 10 µM ([1]; read-out: Total Distance Moved): 78.5 ± 11.1%; response vs control in vivo at 10 µM ([1]; read-out: Variance of Turn Angle): 105 ± 10.6%; Ratio of response of ACh with modulator to response of ACh alone, 0.1 μM ACh ([2]; 10 μM modulator, 0.1 μM ACh, Table 4, N = 4-5): 2.47 ± 0.22; Ratio of response of ACh with modulator to response of ACh alone, 100 μM ACh ([2]; 10 μM modulator, 100 μM ACh, Table 4, N = 4-5): 1.67 ± 0.11; Stimulation of [3H]AA release, No ACh (fraction of stimulation above the control) ([2]; 10 μM modulator, Table 4, N = 4-5): 0.37 ± 0.04; Maximum Tolerated Concentration ([3]; after 24-hour exposure in separate experiments, Table 5): 10 µM |
| CCCCc1oc2ccccc2c1C(=O)c1cc(I)c(OCCN(CC)C(C)=O)c(I)c1 [Compound 5a, N-(2-(4-(2-butylbenzofuran-3-carbonyl)-2,6-diiodophenoxy)ethyl)-N-ethylacetamide] | 2.22 ± 0.26 | 1.58 ± 0.03 | 0.17 ± 0.04 | – | 10 | Increase of mAChR activity compared to treatment with ACh alone ([2]; 10 μM modulator): 70%; Intrinsic agonist activity (in words) ([2]; modulator 10 μM, without ACh): significant intrinsic agonist activity |
| COc1ccc(CN2C(=O)C(=O)c3ccccc32)cc1I [Compound 8b, 1-(3-iodo-4-methoxybenzyl)indoline-2,3-dione] | 1.81 ± 0.04 | 1.24 ± 0.01 | 0.08 ± 0.01 | – | 10 | – |
| CCCCc1oc2ccccc2c1C(=O)c1ccc(OC)cc1 [Compound 6a, (2-butylbenzofuran-3-yl)(4-methoxyphenyl)methanone] | 1.18 ± 0.06 | 1.03 ± 0.03 | 0.05 ± 0.01 | – | 3 | – |
| O=C1C(=O)N(Cc2ccc(O)cc2)c2ccccc21 [Compound 10, 1-(4-hydroxybenzyl)indoline-2,3-dione] | 1.60 ± 0.10 | 0.92 ± 0.06 | 0.01 ± 0.01 | – | 10 | – |
| COc1c(Cl)cc(CN2C(=O)C(=O)c3ccccc32)cc1Cl [Compound 8e, 1-(3,5-dichloro-4-methoxybenzyl)indoline-2,3-dione] | 2.13 ± 0.11 | 1.28 ± 0.07 | 0.08 ± 0.01 | – | 100 | – |
